Common to all, as to assay type: cell-based
Experiment [1] deals with Pseudomonas aeruginosa (PA). Kind of experiment: MIC determination. Conditions: Pseudomonas aeruginosa; PA; CAMH broth, 20 μM Apo-Transferrin, 37° C., 18 hours; read-out: Minimum Inhibitory Concentrations, PA. On the procedure: (§1) Sterile technique was used throughout these experiments. Suspensions of organisms were removed from storage (−80° C.) and partially thawed. Partially thawed organisms (1 μL) were inoculated into 3 mL sterile LB Broth in a sterile culture tube and capped, then cultured at 37° C. with shaking for 4-5 hours until the optical density at 600 nm (OD600) was greater than 0.1 on a single beam spectrophotometer.
(§2) The concentration of organisms was adjusted to 0.08-0.1 OD600 (0.5 McFarland units) by dilution with sterile cation-adjusted Meuller-Hinton (CAMH) broth. The suspensions were used within 30 minutes of preparation.
(§3) A stock solution was made of each test compound by measuring 6.4 mg of the compound on an analytical balance and dissolving it in DMSO (1 mL) to get a transparent solution. The solutions were stored at −20° C. and thawed prior to use.
(§4) Sterile CAMH broth (200 μL) containing 20 μM Apo-Transferrin was pipetted into the first row of 8 columns of a sterile, round-bottomed, transparent, 96-well microplate using an 8-channel pipette equipped with sterile tips. One hundred μL was pipetted into the wells of the remaining 11 rows.
(§5) With an 8-channel pipette equipped with sterile tips, 100 μL of the first row solution was transferred to the second row and mixed. The process was repeated for the second to third rows and continued through row 11. One hundred μL from row 11 was removed and discarded so that all 12 rows contained 100 μL. Row 12 contained no compound and rows 1-11 contained 64, 32, 16, 8, 4, 2, 1, 0.5, 0.25, 0.125, […] of a given compound.
(§6) Inoculant suspensions (0.5 μL) were added to the 12 wells of each column. The plates were then covered and incubated at 37° C. overnight for 18 hours.
(§7) For each organism the MIC was determined by identifying the transparent well with the lowest test compound concentration.

Experiment [2] deals with Pseudomonas aeruginosa PA (RR-1). Nature of the experiment: MIC determination. Conditions: Pseudomonas aeruginosa; PA (RR-1); CAMH broth, 20 μM Apo-Transferrin, 37° C., 18 hours; read-out: Minimum Inhibitory Concentrations, PA (RR-1). On the procedure:
as §1, §2, §3, §4, §5, §6, §7

The test system of experiment [3] is Pseudomonas aeruginosa PA (RR-2). Nature of the experiment: MIC determination. As to conditions: Pseudomonas aeruginosa; PA (RR-2); CAMH broth, 20 μM Apo-Transferrin, 37° C., 18 hours; read-out: Minimum Inhibitory Concentrations, PA (RR-2). On the procedure:
as §1, §2, §3, §4, §5, §6, §7

For experiment [4], the system named is Pseudomonas aeruginosa PA (URMC-2). Nature of the experiment: MIC determination. Conditions: Pseudomonas aeruginosa; PA (URMC-2); CAMH broth, 20 μM Apo-Transferrin, 37° C., 18 hours; read-out: Minimum Inhibitory Concentrations, PA (URMC-2). On the procedure: as §1, §2, §3, §4, §5, §6, §7
The test system of experiment [5] is Pseudomonas aeruginosa PA (URMC-3). Kind of experiment: MIC determination. As to conditions: Pseudomonas aeruginosa; PA (URMC-3); CAMH broth, 20 μM Apo-Transferrin, 37° C., 18 hours; read-out: Minimum Inhibitory Concentrations, PA (URMC-3). Here is the method:
as §1, §2, §3, §4, §5, §6, §7

Experiment [6] deals with Pseudomonas aeruginosa PA-RR-(980151052). Kind of experiment: MIC determination. As to conditions: Pseudomonas aeruginosa; PA-RR-(980151052); CAMH broth, 20 μM Apo-Transferrin, 37° C., 18 hours; read-out: Minimum Inhibitory Concentrations, PA-RR-(980151052). On the procedure: as §1, §2, §3, §4, §5, §6, §7
In experiment [7] the test system is Pseudomonas aeruginosa PA-RR-(98023895). Nature of the experiment: MIC determination. As to conditions: Pseudomonas aeruginosa; PA-RR-(98023895); CAMH broth, 20 μM Apo-Transferrin, 37° C., 18 hours; read-out: Minimum Inhibitory Concentrations, PA-RR-(98023895). Here is the method: as §1, §2, §3, §4, §5, §6, §7
Experiment [8] concerns Pseudomonas aeruginosa PA-RR-(G7294437). Nature of the experiment: MIC determination. Conditions: Pseudomonas aeruginosa; PA-RR-(G7294437); CAMH broth, 20 μM Apo-Transferrin, 37° C., 18 hours; read-out: Minimum Inhibitory Concentrations, PA-RR-(G7294437). On the procedure: as §1, §2, §3, §4, §5, §6, §7
The test system of experiment [9] is Pseudomonas aeruginosa PA-RR-(G7304100). Nature of the experiment: MIC determination. As to conditions: Pseudomonas aeruginosa; PA-RR-(G7304100); CAMH broth, 20 μM Apo-Transferrin, 37° C., 18 hours; read-out: Minimum Inhibitory Concentrations, PA-RR-(G7304100). On the procedure:
as §1, §2, §3, §4, §5, §6, §7

Experiment [10] relates to Pseudomonas aeruginosa PA-RR-(G7305586). Kind of experiment: MIC determination. Conditions: Pseudomonas aeruginosa; PA-RR-(G7305586); CAMH broth, 20 μM Apo-Transferrin, 37° C., 18 hours; read-out: Minimum Inhibitory Concentrations, PA-RR-(G7305586). Here is the method: as §1, §2, §3, §4, §5, §6, §7
The test system of another experiment is E. coli J53 Alone. Kind of experiment: MIC determination, isogenic E. coli strains. As to conditions: for MIC: Escherichia coli, J53ALONE, 18 h, read-out: Mimimum Inhibitory Concentrations, J53 Alone; for Mimimum Inhibitory Concentrations, J53 Alone: Table 4-2, CAMH broth, 20 μM Apo-Transferrin, 37° C., 18 hours. In outline:
(§8)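 Broth microdilution in cation-adjusted Mueller-Hinton broth with 20 μM apo-transferrin, 2-fold compound series from 64 μg/mL. E. coli J53, alone or transformed with a pBC-SK(+) plasmid carrying the beta-lactamase gene (e.g. DHA-1), inoculated from 0.5 McFarland suspension; 18 h at 37° C; MIC = lowest concentration with clear well.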

The subject of experiment [11] is Isogenic E. coli J58 strain carrying CTX-M-14. Nature of the experiment: MIC determination, isogenic E. coli strains. As to conditions: Escherichia coli, 18 h, read-out: Mimimum Inhibitory Concentrations, CTX-M-14. Put shortly: (§9)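 Isogenic E. coli J53 carrying plasmid-encoded CTX-M-14 or CTX-M-15 (ampicillin-selected), standardized to 0.08-0.1 OD600, incubated overnight (18 h, 37° C.) in CAMH broth plus 20 μM apo-transferrin over 2-fold compound dilutions starting at 64 μg/mL. Lowest concentration with no visible growth recorded as MIC.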

Experiment [12] relates to Isogenic E. coli J58 strain carrying CTX-M-15. Nature of the experiment: MIC determination, isogenic E. coli strains. Conditions: Escherichia coli, 18 h, read-out: Mimimum Inhibitory Concentrations, CTX-M-15. In outline:
as §9

The test system of experiment [13] is Isogenic E. coli J58 strain carrying NDM-1. Kind of experiment: MIC determination, isogenic E. coli strains. As to conditions: Escherichia coli, 18 h, read-out: Mimimum Inhibitory Concentrations, NDM-1. Put shortly: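 E. coli J53 transformed with a pBC-SK(+) plasmid encoding NDM-1 was adjusted to 0.08-0.1 OD600. It was grown 18 h at 37° C in CAMH broth containing 20 μM apo-transferrin with twofold compound dilutions from 64 μg/mL. MIC was taken as the lowest concentration giving a transparent well.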

The subject of experiment [14] is Isogenic E. coli J58 strain carrying VIM-2. Kind of experiment: MIC determination, isogenic E. coli strains. As to conditions: for MIC: Escherichia coli, 18 h, read-out: Mimimum Inhibitory Concentrations, VIM-2; for MICs for an E. coli strain carrying the gene for carbapenemase VIM-1, in words: review of Tables 4-1 and 4-2. Put shortly: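 E. coli J53 transformed with pBC-SK(+) plasmid carrying synthesized VIM-2 gene, grown in LB to OD600 >0.1, adjusted to 0.08–0.1 OD600 in CAMH broth.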

Experiment [15] has as its system Isogenic E. coli J58 strain carrying DHA-1. Nature of the experiment: MIC determination, isogenic E. coli strains. Conditions: Escherichia coli, 18 h, read-out: Mimimum Inhibitory Concentrations, DHA-1. Put shortly: as §8
The subject of experiment [16] is Isogenic E. coli J58 strain carrying TEM-26. Kind of experiment: MIC determination, isogenic E. coli strains. As to conditions: Escherichia coli, 18 h, read-out: Mimimum Inhibitory Concentrations, TEM-26. In outline: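 Broth microdilution in cation-adjusted Mueller-Hinton broth with 20 μM apo-transferrin, compound […] in twofold steps, inoculum from 0.5 McFarland suspension. E. coli J53 transformed with pBC-SK(+) encoding TEM-26; 18 h at 37° C, MIC as lowest concentration giving a clear well.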

The values below come from patent US20190100534A1, “Cephem Compounds with Latent Reactive Groups” (Gladius Pharmaceuticals, Inc., priority 2017, published 2019).

Regarding `CC(C)(O/N=C(\C(=O)N[C@@H]1C(=O)N2C(C(=O)O)=C(C=Cc3ccc(C[n+]4ccc(-c5ccc(O)c(O)c5)cc4)cc3)CS[C@H]12)c1csc(N)n1)C(=O)O` (mixture of isomers) [Compound 412, 1-(4-((E/Z)-2-((6R,7R)-7-((Z)-2-(2-aminothiazol-4-yl)-2-(((2-carboxypropan-2-yl)oxy)imino)acetamido)-2-carboxy-8-oxo-5-thia-1-azabicyclo[4.2.0]oct-2-en-3-yl)vinyl)benzyl)-4-(3,4-dihydroxyphenyl)pyridin-1-ium], the MIC in [1] is 2 µg/mL; in experiment [2], 4 µg/mL; in experiment [3], 2 µg/mL; in experiment [4], 2 µg/mL; in [5], at most 0.06 µg/mL; in experiment [6], 4 µg/mL. For the same compound, the MIC in [7] was 4 µg/mL; in experiment [8] it was 1 µg/mL; in experiment [9], at most 0.06 µg/mL; in experiment [10], 16 µg/mL; with E. coli J53 Alone, at most 0.06 µg/mL; in experiment [11], 0.5 µg/mL. Also, the MIC in experiment [12] is 0.13 µg/mL; in experiment [13], over 64 µg/mL; in experiment [14] it was 0.5 µg/mL. Also, in the experiment on E. coli J53 Alone, the “Mimimum Inhibitory Concentrations, J53 Alone” value is at most 0.06 microgram/mL.

Regarding `CC(C)(O/N=C(\C(=O)N[C@@H]1C(=O)N2C(C(=O)O)=C(C=Cc3ccc(C[N+]4(C)CCc5c(Cl)c(O)c(O)c(Cl)c5C4)cc3)CS[C@H]12)c1csc(N)n1)C(=O)O` (mixture of isomers) [Compound 429, 2-(4-((E/Z)-2-((6R,7R)-7-((Z)-2-(2-aminothiazol-4-yl)-2-(((2-carboxypropan-2-yl)oxy)imino)acetamido)-2-carboxy-8-oxo-5-thia-1-azabicyclo[4.2.0]oct-2-en-3-yl)vinyl)benzyl)-5,8 dichloro-6,7-dihydroxy-2-methyl-1,2,3,4-tetrahydroisoquinolin-2-ium], the MIC in experiment [1] was 0.25 µg/mL; in experiment [2], 0.25 µg/mL; in [3], at most 0.06 µg/mL; in experiment [4] it was 0.5 µg/mL; in [5], 0.5 µg/mL; in experiment [6], 0.5 µg/mL. The MIC in experiment [7] is 4 µg/mL; in experiment [8], at most 0.06 µg/mL; in experiment [9] it was at most 0.06 µg/mL; in experiment [10], 1 µg/mL; in the experiment with E. coli J53 Alone it was at most 0.06 µg/mL; in experiment [15] it was 0.25 µg/mL. For the same compound, the MIC is over 64 µg/mL in experiment [13] and at most 0.06 µg/mL in experiment [14]. The “Mimimum Inhibitory Concentrations, J53 Alone” value with E. coli J53 Alone is reported as at most 0.06 microgram/mL. Besides, the “MICs for an E. coli strain carrying the gene for carbapenemase VIM-1, in words” value in experiment [14] is “low microgram/mL MICs”.

Regarding `CC(C)(O/N=C(\C(=O)N[C@@H]1C(=O)N2C(C(=O)O)=C(C=Cc3ccc(C[N+]4(C)Cc5c(Cl)c(O)c(O)c(Cl)c5C4)cc3)CS[C@H]12)c1csc(N)n1)C(=O)O` (mixture of isomers) [Compound 431, 2-(4-((E/Z)-2-((6R,7R)-7-((Z)-2-(2-aminothiazol-4-yl)-2-(((2-carboxypropan-2-yl)oxy)imino)acetamido)-2-carboxy-8-oxo-5-thia-1-azabicyclo[4.2.0]oct-2-en-3-yl)vinyl)benzyl)-4,7-dichloro-5,6-dihydroxy-2-methylisoindolin-2-ium], the MIC is 0.25 µg/mL in experiment [1]; 0.13 µg/mL in experiment [2]; at most 0.06 µg/mL in experiment [3]; at most 0.06 µg/mL in experiment [4]; 1 µg/mL in experiment [5]; 0.25 µg/mL in experiment [6]. For the same compound, the MIC in experiment [7] is 4 µg/mL; in experiment [8], at most 0.06 µg/mL; in experiment [9] it was at most 0.06 µg/mL; in experiment [10], 0.5 µg/mL; in the experiment on E. coli J53 Alone it was at most 0.06 µg/mL; in experiment [15], 1 µg/mL. In addition, the MIC in experiment [11] was 0.13 µg/mL; in experiment [12] it was 0.13 µg/mL; in experiment [13], over 64 µg/mL; in experiment [14], at most 0.06 µg/mL. Further, in the experiment with E. coli J53 Alone, the “Mimimum Inhibitory Concentrations, J53 Alone” value is at most 0.06 microgram/mL. The “MICs for an E. coli strain carrying the gene for carbapenemase VIM-1, in words” value in [14] is on record as “low microgram/mL MICs”.

Consider `C#CC[N+]1(Cc2ccc(C=CC3=C(C(=O)O)N4C(=O)[C@@H](NC(=O)/C(=N\OC(C)(C)C(=O)O)c5csc(N)n5)[C@H]4SC3)cc2)CCc2cc(O)c(O)cc2C1` (mixture of isomers) [Compound 446, 2-(4-((E/Z)-2-((6R,7R)-7-((Z)-2-(2-aminothiazol-4-yl)-2-(((2-carboxypropan-2-yl)oxy)imino)acetamido)-2-carboxy-8-oxo-5-thia-1-azabicyclo[4.2.0]oct-2-en-3-yl)vinyl)benzyl)-6,7-dihydroxy-2-(prop-2-yn-1-yl)-1,2,3,4-tetrahydroisoquinolin-2-ium], for which the MIC is 0.13 µg/mL with E. coli J53 Alone; 0.25 µg/mL in [15]; 0.25 µg/mL in experiment [16]; 0.25 µg/mL in [11]; 0.25 µg/mL in experiment [12]; over 64 µg/mL in experiment [13]. Further, in experiment [14], the MIC amounted to 0.25 µg/mL. The “Mimimum Inhibitory Concentrations, J53 Alone” value with E. coli J53 Alone is 0.13 microgram/mL.
